# Source: US12285440B2, “APOE4 impairs myelination via altered cholesterol biosynthesis and transport in oligodendroglia” (Massachusetts Institute of Technology, priority 2021, dated 2025)
# “Also recorded” adds a separate entry of the source.
# Tests used:
# iMGLs [1] = assay: Calcium imaging of Fluo-4 AM labeled iMGLs with compound uncaging; type: cell-based, human; conditions: uncaging at 405 nm; for amplitude of calcium transients upon uncaging: 1 mM Caged NMDA or 1 mM Caged Glutamate
# APOE4KI mice [2] = assay: Cyclodextrin treatment of APOE4KI mice, brain immunohistochemistry (bodipy-cholesterol, Olig2, Mbp); type: in vivo, mouse; conditions: 2 g/kg subcutaneous twice a week for eight weeks, vs saline control
# Protocol: It was next assessed whether cyclodextrin could reduce aberrant cholesterol accumulation in oligodendrocytes and promote increased myelination in APOE4KI mice in vivo. APOE4KI mice were treated with subcutaneous injections of cyclodextrin or saline (control) for eight weeks (n=5 control and 4 cyclodextrin treated mice). […] To more directly assess myelination in cyclodextrin treated APOE4 mice, TEM-based ultrastructural analysis was performed.
# Animals were anaesthetized via exposure to gaseous isoflurane, and transcardially perfused with ice-cold PBS. The brains were dissected out, one hemisphere frozen in dry ice, and one hemisphere drop-fixed in 4% paraformaldehyde. The post-fixed hemisphere was sliced at a thickness of 40 μm using a Leica vibratome. Slices were blocked with a buffer containing 0.3% Triton-X and 10% normal donkey serum for two hours at room temperature, before being incubated with primary antibody overnight at 4° C. Slices were then washed with PBS and incubated with secondary antibody for two hours at room temperature, washed with PBS again, and mounted. Slides were imaged using a Zeiss LSM 880 microscope, and analyzed using the ImageJ “FIJI” or Imaris softwares. Human brain tissue slices were further incubated with TrueBlack for five minutes prior to mounting, to reduce auto-fluorescence.
# (§1) APOE4KI female mice were injected subcutaneously with either 200 μL Cyclodextrin (2 g/kg) or 200 μL saline, twice a week for eight weeks.
# [3] = test system: APOE4 oligodendroglia/iNeuron co-cultures; assay: In vitro myelination assay, oligodendroglia/iNeuron co-cultures, MBP and neurofilament staining; type: cell-based, human; conditions: APOE4 co-cultures treated 6 weeks
# Text: To further investigate the effect of APOE4 on myelination an in vitro model of myelination was developed that employs the genetically controlled isogenic APOE cells derived from CRISPR-edited iPSCs. To achieve this, iPSC-derived oligodendroglia were co-cultured with neurons induced from iPSCs using NGN2 overexpression (iNeurons) in a three-dimensional extracellular matrix that allows each cell type to interact with other cells and self-assemble into tissue-like structures (FIG. 10D). After 2 weeks in these 3D co-cultures, MBP-positive oligodendroglia spread across the culture and engage neurofilament-positive axons (FIG. 10E). After 6 weeks in culture, myelin-associated proteins 04 and Mbp encircled numerous neurofilaments, mimicking biological processes critical to myelination (FIG. 10E). […] Therefore, it was sought to use this in vitro myelination assay to assess the effect of APOE4 on myelin-associated phenotypes in human cells. Consequently, oligodendroglia/iNeuron co-cultures from two different APOE4/4 and APOE3/3 isogenic sets of iPSC-derived cells were established. […]
# To determine whether cyclodextrin-induced cholesterol reduction in APOE4 oligodendroglia affected myelination, APOE4 oligodendroglia/iNeuron co-cultures were treated with cyclodextrin for 6 weeks and then assessed myelination phenotypes (FIG. 4C). […]
# APOE4KI mice [4] = assay: Cyclodextrin treatment of APOE4KI mice, TEM of corpus callosum (g-ratio); conditions: n=150 neurons, 2 g/kg subcutaneous twice a week for eight weeks, vs control mice
# APOE4KI mice [5] = assay: Open field task; type: in vivo, mouse; conditions: cyclodextrin-treated vs control APOE4KI mice
# Protocol: (§2) To investigate whether the increased myelination observed in cyclodextrin treated APOE4KI mice could promote functional improvements, the novel object recognition assay was performed to evaluate learning and memory (FIG. 4G)^57.
# as §1
# (§3) Mice were placed in an open field arena and allowed to move freely for ten minutes. The total distance moved and time mice spent in the center of the arena was tracked using the EthoVision XT software from Noldus. 24 hours later, mice were then placed into the same arena containing two objects and allowed to freely investigate both for a period of eight minutes. After an interval of four hours, mice were then placed back in the chamber with one novel object and one familiar object. The preference index was calculated by determining how much time an animal spent with its nose interacting with the novel object, divided by the total time an animal spent interacting with either object.
# APOE4KI mice [6] = assay: Novel object recognition task; type: in vivo, mouse; conditions: female APOE4KI mice, control n=12, cyclodextrin n=14
# Protocol: as §2, §1, §3
# [7] = test system: APOE4 iPSC-derived oligodendroglia; assay: APOE oligodendroglia drug treatment, bodipy-cholesterol and bodipy lipid droplet staining; type: cell-based, human; conditions: for total bodipy-cholesterol staining: APOE4 oligodendroglia treated two weeks (Atorvastatin 1 μM, Simvastatin 1 μM, Cyclodextrin 10 mM), compared with APOE3/3 oligodendroglia
# Protocol: It was reasoned that inhibiting cholesterol biosynthesis and/or facilitating cholesterol transport in APOE4 oligodendrocytes may reduce intracellular accumulation and improve myelination.
# Cells were plated onto a Millipore eight-chamber glass slide, at a density of 250,000 cells per well. Cells were then cultured in Neurobasal media, supplemented with PDGFR-α, NT3 and β-FGF. […] Cells were fixed with 4% PFA, and stained for Bodipy-cholesterol, WGA-555 and DAPI.
# CYP46A1 = conditions: APOE4 oligodendroglia treated two weeks, vs untreated APOE4 controls
# forebrain spheroids = type: cell-based, human
# [8] = test system: excitatory neurons generated by the rapid induction of NGN2 expression; assay: MEA recording of NGN2-induced neurons treated with cholesterol; type: cell-based, human
# Text: (§4) Cholesterol is essential for proper neuronal physiology, and cholesterol depletion is known to impair neurotransmission. Since we detect extracellular accumulation of cholesterol in APOE4 iMGLs, we wondered what the impact of exogenous cholesterol treatment would be to these neuronal cultures. Due to the extended culture times of spheroids, we opted to conduct these studies with excitatory neurons generated by the rapid induction of NGN2 expression. […] To further dissect the physiological process that renders neurons less excitable upon treatment with exogenous cholesterol, we next assessed iPSC-derived neurons by patch-clamp electrophysiology. […] Potentiation of Kir currents is aligned with our observation in cells recorded on MEA, as strong inwardly-rectifying potassium currents are known to hyperpolarize resting membrane potentials and decrease neuronal excitability.
# Dissociated spheroids or NGN2-induced neurons were plated as a 10 μl droplet in Poly-D-Lysine (Sigma-Aldrich) coated wells of a CytoView MEA 48-well plate (Axion BioSystems; M768-tMEA-48B). […] Spontaneous neural activity was recorded for 30 minutes at a sampling rate of 12.5 kHz and an adaptive threshold set at 5.5 times the standard deviation of baseline noise was used for spike detection. […]
# [9] = test system: dissociated spheroid cultures; assay: Patch-clamp electrophysiology of dissociated spheroid neurons with exogenous cholesterol; type: cell-based, human; conditions: 1 mM cholesterol in external solution
# Text: as §4
# Whole-cell patch-clamp recordings of neurons were performed at 6 to 8 weeks after spheroid dissociation and 2D plating, or for iMGLs after 2 to 4 weeks of iMGL differentiation. […] Membrane potentials were typically kept between −50 mV to −70 mV depending on whether neurons or iMGLs were being recorded. In voltage-clamp mode, currents were recorded with voltage steps ranging from −160 mV to +80 mV. […] ATP-evoked currents were recorded by local application of 100 μM (Sigma-Aldrich; #A9187). […]
# iMGLs [10] = assay: Whole-cell patch-clamp of iMGLs, ATP-evoked currents; type: cell-based, human; conditions: local application of 100 μM
compound,measurement,setting,value
CN[C@H](CC(=O)O)C(=O)O [NMDA],amplitude of calcium transients upon uncaging,iMGLs [1],increase the amplitude of calcium transients
2-hydroxypropyl-β-cyclodextrin,Mbp staining,APOE4KI mice [2],significantly (p=0.0008) increased Mbp staining; also recorded: overall increase in Mbp
same,bodipy-cholesterol staining co-localizing within 1 μm of Mbp staining,APOE4KI mice [2],significant (p=0.0423) increase; also recorded: increase in cholesterol-myelin colocalization
same,bodipy-cholesterol staining accumulated around Olig2-positive nuclei,APOE4KI mice [2]; hippocampus,significantly (p=0.0038) reduced compared to control mice; also recorded: reduction of bodipy-cholesterol staining in cyclodextrin-treated mice
same,"levels of MBP localization with neurofilament, comparison with APOE3 co-cultures",[3],not significantly (p=0.0794) different from APOE3 co-cultures
same,MBP staining localized along neurofilament staining,"[3]; untreated APOE4 18.89%, APOE3 62.42%, p=0.0274",43.44%+/−5.382
same,g-ratio,APOE4KI mice [4],significantly (p<0.0001) lower g-ratio; also recorded: decrease in g-ratio
same,total distance moved,APOE4KI mice [5]; p=0.1275,similar
same,velocity,APOE4KI mice [5]; p=0.1711,similar
same,duration in the center of the cages,APOE4KI mice [5]; p=0.4478,similar
same,preference for novel object,APOE4KI mice [6],significantly (p=0.0466) increased preference for interacting with the novel object
same,total bodipy-cholesterol staining,[7],reduced bodipy-cholesterol staining that was not significantly different (p>0.9999) from that in APOE3 oligodendroglia
same,neutral lipid droplets measured by bodipy staining,[7]; cyclodextrin-treated vs control APOE4 oligodendroglia,significant (p<0.0001) reduction
same,number of intracellular droplets of bodipy-cholesterol,"[7]; cyclodextrin-treated vs control APOE4 oligodendroglia, normalized to nuclei",significant (p=0.0092) reduction
same,expression of CYP46A1,CYP46A1,significant (p=0.0011) upregulation
NC1=N[C@H](O)[C@H]2[C@H]3O[C@]4(O)O[C@@H]([C@@H](O)[C@@]2(N1)[C@@H]4O)[C@]3(O)CO [tetrodotoxin],increase in iMGL calcium transients mediated by stimulated spheroid media,forebrain spheroids,reduced to levels of non-stimulated spheroid media
N[C@@H](CCC(=O)O)C(=O)O [glutamate],amplitude of calcium transients upon uncaging,iMGLs [1],increase the amplitude of calcium transients
CC(C)CCC[C@@H](C)[C@H]1CC[C@H]2[C@@H]3CC=C4C[C@@H](O)CC[C@]4(C)[C@H]3CC[C@]12C [cholesterol],neuronal activity on MEA,[8],phenocopied our observation of treatment with APOE4 iMGL conditioned media
same,resting membrane potential (RMP),[9],significantly hyperpolarized the resting membrane potential
same,"I-V curve, inwardly-rectifying potassium (Kir) currents",[9]; vs non-treated neurons,greater inwardly-rectifying potassium (Kir) currents
Nc1ncnc2c1ncn2[C@@H]1O[C@H](COP(=O)(O)OP(=O)(O)OP(=O)(O)O)[C@@H](O)[C@H]1O [ATP],"response to extracellular ATP, whole-cell patch-clamp",iMGLs [10],iMGLs sensed extracellular ATP
same,calcium transients upon ATP uncaging,iMGLs [1]; 1 mM Caged ATP,robust increase in calcium transients
CC(C)c1c(C(=O)Nc2ccccc2)c(-c2ccccc2)c(-c2ccc(F)cc2)n1CC[C@@H](O)C[C@@H](O)CC(=O)O [atorvastatin],total bodipy-cholesterol staining,[7],significantly (p=0.0085 and 0.0450) higher than APOE3/3 oligodendroglia
